Consider nine compounds from patent publication US4808596A, “Imidazo[4,5-b]pyridine compounds and pharmaceutical compositions containing same” (Tokyo Tanabe Company, Ltd., priority 1986, dated 1989).

One assay concerns the target T1, (H^+ +K^+) ATPase (Sus scrofa, UniProt P19156).
T1 construct: prepared from fresh pieces of the fundus ventriculi of hog stomach; from tissue; host or cells: hog stomach, fundus ventriculi (fresh pieces), prepared by the method of Saccomani et al., J. Biol. Chem. 1976
Nature of the assay: Inhibitory effect on (H^+ +K^+) ATPase. Format: biochemical, hog. As to conditions: in vitro; for inhibition at 1000 µM: at 1 × 10^-3 M, read-out: Degree of inhibition, Inhibitory effect on (H^+ + K^+) ATPase. Here is the method: The inhibitory effect of the present compounds [I] on (H^+ +K^+) ATPase was tested by adding each test compound to a solution containing 300-500 μg, on a protein basis, of the enzyme, incubating this reaction mixture at 35°-37° C. for 5-30 minutes, and then determining the residual activity of (H^+ +K^+) ATPase present in the reaction mixture. The test compounds were dissolved in methanol or ethanol in advance and added to the reaction system in such an amount as to give a concentration of 1×10^-3 M. The (H^+ +K^+) ATPase used in this test was prepared from fresh pieces of the fundus ventriculi of hog stomach according to the method of Saccomani et al. (The Journal of Biological Chemistry, Vol. 251, No. 23, p. 7690, 1976). The residual activity of (H^+ +K^+) ATPase was determined by mixing magnesium chloride and potassium chloride with the incubated reaction mixture, adding adenosine triphosphate thereto, incubating this assay mixture 37° C. for 5-15 minutes to effect an enzymic reaction, and colorimetrically determining the liberated inorganic phosphate by use of an ammonium molybdate reagent. The initial concentrations of magnesium chloride, potassium chloride and adenosine triphosphate were adjusted to 2 mM, 20 mM and 2 mM, respectively. Colorimetric determinations were made at a wavelength of 360-400 nm. As a control experiment, the residual activity of (H^+ +K^+) ATPase was determined by repeating the above-described procedure without adding any test compound to the reaction system. In this table, the inhibitory effect is indicated by the degree of inhibition which was obtained by calculating the difference between the measured value obtained in the control experiment and the measured value resulting from the addition of each test compound and expressing this difference as a percentage of the measured value obtained in the control experiment. For purposes of comparison, the inhibitory effect of Omeprazole and Compounds α and β on (H^+ +K^+) ATPase was tested in the same manner as described above and the results thus obtained are also shown in Table 2.

In assay [1] the test system is Hydrochloric acid-ethanol ulcer. Nature of the assay: Inhibitory effect on hydrochloric acid-ethanol ulcer. Format: in vivo, male Wistar rats. Conditions: Rattus norvegicus; oral, rats; 30 minutes before hydrochloric acid-ethanol; 1 hour; read-out: Inhibitory effect on Hydrochloric acid-ethanol ulcer, ID50. Here is the method:
(§1) The inhibitory effects of the present compounds [I] on various experimental ulcers were tested by using male Wistar rats, weighing about 200 g, in groups of six and determining the respective ulceration indexes for 5 types of experimental ulcers. In each test, the test compounds were suspended in a 0.5% aqueous solution of carboxymethyl cellulose and administered orally in a series of appropriately selected doses ranging from 1 to 100 mg/kg. The test procedures for 5 types of experimental ulcers were as follows:
To rats which had been fasted for 24 hours, a 150 mM hydrochloric acid-60% ethanol mixture was orally administered in an amount of 0.5 ml per 100 g of body weight. After an hour, each rat was sacrificed and the length of the ulcer(s) formed in the glandular stomach part was measured. The ulceration index was calculated on the basis of the data thus obtained. The test compounds were administered 30 minutes before administration of the hydrochloric acid-ethanol mixture.
(§2) The pharmacological effect of the test compounds on each of the aforesaid experimental ulcers was evaluated on the basis of the dose (in mg/kg) required to inhibit the formation of ulcers by 50% (hereinafter referred to as ID50). The ID50 value of each test compound was determined by calculating the difference in ulceration index between the untreated group and each treated group, dividing the difference by the ulceration index of the untreated group to obtain the degree of inhibition, and constructing a dose-response curve on the basis of the data thus obtained. For purposes of comparison, the ID50 values of Omeprazole and Compounds α and β were determined in the same manner as described above and are also shown in Table 4.

The subject of the next assay is gastric acid secretion. Nature of the assay: Inhibitory effect on gastric acid secretion (pylorus ligation). Format: in vivo, male Wistar rats. As to conditions: for ED50: Rattus norvegicus, po, rats, total acidity of gastric juice 4 hours after pylorus ligation; for inhibitory effect on gastric acid secretion (in words): in vivo. Here is the method:
The inhibitory effect of the present compounds [I] on gastric acid secretion was tested by using male Wistar rats, weighing about 200 g, in groups of five. To these rats which had been fasted overnight, the test compounds were orally administered in a series of appropriately selected doses ranging from 1 to 100 mg/kg. Then, the pyloric end of the stomach was ligated. After the lapse of 4 hours, the total acidity of gastric juice of each rat was measured. More specifically, the test compounds were suspended in a 0.5% aqueous solution of carboxymethyl cellulose and administered to the rats 30 minutes before ligation. Gastric juice was collected by sacrificing and laparotomizing each rat. The total acidity of gastric juice was determined by titrating the gastric juice with a 0.1 N aqueous solution of sodium hydroxide until a pH of 7.0 was reached. As a control experiment, the total acidity of gastric juice of an untreated group was determined in the same manner as described above. The inhibitory effect of the test compounds on gastric acid secretion was evaluated on the basis of the dose (in mg/kg) required to inhibit gastric acid secretion, i.e. the total acidity of gastric juice, by 50% (hereinafter referred to as ED50). The ED50 value of each test compound was determined by calculating the difference in total acidity between the untreated group and each treated group, dividing the difference by the total acidity of the untreated group to obtain the degree of inhibition, and constructing a dose-response curve on the basis of the data thus obtained. For purposes of comparison, the ED50 values of Omeprazole and Compounds α and β were determined in the same manner as described above and are also shown in Table 3.

In assay [2] the test system is Water-immersion stress ulcer. The experiment in a line: Inhibitory effect on water-immersion stress ulcer. It counts as in vivo, male Wistar rats. Conditions: Rattus norvegicus; oral, rats; 10 minutes before exposure to the stress; 10 hours; read-out: Inhibitory effect on Water-immersion stress ulcer, ID50. Here is the method: as §1
Rats which had been fasted for 15 hours were immobilized in stress cages and immersed chest-deep in a water bath at 21° C. After 10 hours, each rat was sacrificed and the length of the ulcer(s) formed in the glandular stomach part was measured. The ulceration index was calculated on the basis of the data thus obtained. The test compounds were administered 10 minutes before exposure to the stress.
as §2

The test system of the next assay is Aspirin ulcer. Nature of the assay: Inhibitory effect on aspirin ulcer. Conditions: Rattus norvegicus; oral, rats; 30 minutes before ligation; aspirin 150 mg/kg; 7 hours; read-out: Inhibitory effect on Aspirin ulcer, ID50. It counts as in vivo, male Wistar rats. On the procedure:
as §1
In rats which had been fasted for 24 hours, the pyloric end of the stomach was ligated. After 5 minutes, aspirin was orally administered thereto in a dose of 150 mg/kg. Seven hours after ligation, each rat was sacrificed and the length of the ulcer(s) formed in the glandular stomach part was measured. The ulceration index was calculated on the basis of the data thus obtained. The test compounds were administered 30 minutes before ligation.
as §2

Structures are written as SMILES.

T1 sequence (P19156 2-1034 limits assumed): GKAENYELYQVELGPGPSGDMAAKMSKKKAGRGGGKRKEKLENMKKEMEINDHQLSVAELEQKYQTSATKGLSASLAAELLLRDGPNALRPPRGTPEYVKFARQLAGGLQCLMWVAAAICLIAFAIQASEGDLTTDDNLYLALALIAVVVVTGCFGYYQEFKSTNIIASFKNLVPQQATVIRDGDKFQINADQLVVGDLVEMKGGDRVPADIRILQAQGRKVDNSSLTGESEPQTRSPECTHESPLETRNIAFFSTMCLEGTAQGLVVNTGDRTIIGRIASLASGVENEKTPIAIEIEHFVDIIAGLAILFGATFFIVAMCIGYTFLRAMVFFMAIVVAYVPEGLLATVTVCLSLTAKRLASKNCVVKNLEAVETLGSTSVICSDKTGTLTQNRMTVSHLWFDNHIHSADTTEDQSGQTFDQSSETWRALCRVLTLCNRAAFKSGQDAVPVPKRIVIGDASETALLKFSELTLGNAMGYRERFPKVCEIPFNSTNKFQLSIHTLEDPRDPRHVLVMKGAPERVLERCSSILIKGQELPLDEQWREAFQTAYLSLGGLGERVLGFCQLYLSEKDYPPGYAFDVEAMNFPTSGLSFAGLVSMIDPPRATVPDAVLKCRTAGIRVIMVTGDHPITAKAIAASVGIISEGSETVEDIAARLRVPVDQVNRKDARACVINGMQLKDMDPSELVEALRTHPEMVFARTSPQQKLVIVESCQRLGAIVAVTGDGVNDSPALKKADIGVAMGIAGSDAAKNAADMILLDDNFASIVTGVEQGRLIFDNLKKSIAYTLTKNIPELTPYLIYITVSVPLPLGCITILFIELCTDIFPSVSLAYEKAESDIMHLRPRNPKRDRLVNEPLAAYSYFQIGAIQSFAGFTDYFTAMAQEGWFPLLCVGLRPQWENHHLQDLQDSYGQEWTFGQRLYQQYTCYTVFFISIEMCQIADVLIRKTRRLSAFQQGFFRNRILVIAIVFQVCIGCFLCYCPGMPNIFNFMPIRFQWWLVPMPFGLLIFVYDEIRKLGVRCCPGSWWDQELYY
T1 sequence (P18434 whole entry partner): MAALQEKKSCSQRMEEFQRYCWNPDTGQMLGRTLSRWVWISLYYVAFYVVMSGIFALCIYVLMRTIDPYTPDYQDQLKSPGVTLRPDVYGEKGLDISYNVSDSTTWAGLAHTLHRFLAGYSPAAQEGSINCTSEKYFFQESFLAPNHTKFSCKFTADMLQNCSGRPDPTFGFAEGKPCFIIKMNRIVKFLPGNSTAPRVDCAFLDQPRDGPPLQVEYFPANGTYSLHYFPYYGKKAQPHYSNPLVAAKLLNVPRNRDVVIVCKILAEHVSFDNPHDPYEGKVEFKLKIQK

Regarding `COc1c(C)cnc(C[S+]([O-])c2nc3ncc(Br)cc3[nH]2)c1C` (stereo not drawn) [Compound α, 2-[2-(3,5-dimethyl-4-methoxy)pyridylmethylsulfinyl]-6-bromoimidazo[4,5-b]pyridine, reference compound], the inhibition (usually the change of the read-out against control, counted positive when it falls) at 1000 µM on (H^+ +K^+) ATPase worked out at 100%. Besides, on (H^+ +K^+) ATPase, the “inhibitory effect on (H^+ +K^+) ATPase (in words)” value is recorded as “marked inhibitor effect”. Also, the ED50 in assay [1] was 63.3 mg/kg; with gastric acid secretion, 73 mg/kg; in assay [2], at least 100 mg/kg; with Aspirin ulcer, at least 100 mg/kg. In addition, the “inhibitory effect on gastric acid secretion (in words)” value in the assay on gastric acid secretion is “not satisfactorily reflected in the in vivo tests”.

As to `COc1c(C)cnc(C[S+]([O-])c2nc3ncc(C)cc3[nH]2)c1C` (stereo not drawn) [Compound β, 2-[2-(3,5-dimethyl-4-methoxy)pyridylmethylsulfinyl]-6-methylimidazo[4,5-b]-pyridine, reference compound], the inhibition at 1000 µM at (H^+ +K^+) ATPase was 100%. For the same compound, the “inhibitory effect on (H^+ +K^+) ATPase (in words)” value on (H^+ +K^+) ATPase was “marked inhibitor effect”. Further, the ED50 was found to be 25.4 mg/kg in assay [1], 41 mg/kg with gastric acid secretion, 63.3 mg/kg in assay [2] and 23.8 mg/kg in the assay on Aspirin ulcer. Also, the “inhibitory effect on gastric acid secretion (in words)” value in the assay with gastric acid secretion is listed as “not satisfactorily reflected in the in vivo tests”.

In the case of `COc1ccc2[nH]c([S+]([O-])Cc3ncc(C)cc3C)nc2n1` (stereo not shown) [Example 1, 2-[2-(3,5-Dimethyl)pyridylmethylsulfinyl]-5-methoxyimidazo[4,5-b]pyridine], the inhibition at 1000 µM at (H^+ +K^+) ATPase was 100%. Besides, the ED50 in assay [1] was found to be 5.1 mg/kg; in the assay on gastric acid secretion, 13 mg/kg; in assay [2], 26.4 mg/kg; in the assay on Aspirin ulcer it was 6.3 mg/kg.

In the case of `CCOc1ccc2[nH]c([S+]([O-])Cc3ncc(C)c(C)c3C)nc2n1` (stereo not shown) [Example 8, 2-[2-(3,4,5-Trimethyl)pyridylmethylsulfinyl]-5-ethoxyimidazo[4,5-b]pyridine], the inhibition at 1000 µM at (H^+ +K^+) ATPase is 100%. Besides, the ED50 in assay [1] came out at 8.2 mg/kg; with gastric acid secretion it was 12 mg/kg; in assay [2] it was 34.2 mg/kg; with Aspirin ulcer it was 10.7 mg/kg.

In the case of `COc1cc(C[S+]([O-])c2nc3nc(OCC4CC4)ccc3[nH]2)ncc1C` (stereo not shown) [Example 13, 2-[2-(4-Methoxy-5-methyl)pyridylmethylsulfinyl]-5-cyclopropylmethyloxyimidazo[4,5-b]pyridine], on (H^+ +K^+) ATPase, the inhibition at 1000 µM stood at 87.4%. The ED50 amounted to 9.6 mg/kg in assay [1], 18 mg/kg with gastric acid secretion, 37.3 mg/kg in assay [2] and 14.5 mg/kg in the assay on Aspirin ulcer.

`COc1c(C)cnc(C[S+]([O-])c2nc3nc(OCC4CC4)ccc3[nH]2)c1C` (stereo not shown) [Example 24, 2-[2-(3,5-Dimethyl-4-methoxy)pyridylmethylsulfinyl]-5-cyclopropylmethyloxyimidazo[4,5-b]pyridine]: the inhibition at 1000 µM on (H^+ +K^+) ATPase is 100%. The ED50 was found to be 3.5 mg/kg in assay [1], 9 mg/kg in the assay on gastric acid secretion, 27 mg/kg in assay [2] and 5.4 mg/kg in the assay with Aspirin ulcer.

For `COc1c(C)cnc(C[S+]([O-])c2nc3nc(OCC(F)(F)F)ccc3[nH]2)c1C` (stereo not shown) [Example 26, 2-[2-(3,5-Dimethyl-4-methoxy)pyridylmethylsulfinyl]-5-(2,2,2-trifluoroethoxy)imidazo[4,5-b]pyridine], on (H^+ +K^+) ATPase, the inhibition at 1000 µM amounted to 100%. Further, the ED50 in assay [1] worked out at 7.9 mg/kg; with gastric acid secretion, 15 mg/kg; in assay [2], 30.5 mg/kg; in the assay with Aspirin ulcer it was 9.5 mg/kg.

As to `CCCCCCCOc1ccc2[nH]c([S+]([O-])Cc3ncc(C)cc3C)nc2n1` (stereo not shown) [Example 33, 2-[2-(3,5-Dimethyl)pyridylmethylsulfinyl]-5-n-heptyloxyimidazo[4,5-b]pyridine], at (H^+ +K^+) ATPase, the inhibition at 1000 µM is 95.4%. The ED50 in assay [1] was 10.3 mg/kg; in the assay on gastric acid secretion, 17 mg/kg; in assay [2] it was 35.1 mg/kg; in the assay on Aspirin ulcer it was 12.6 mg/kg.

Take `COc1ccc2[nH]c([S+]([O-])Cc3ncc(C)c(OC)c3C)nc2c1` (stereo not shown) [Omeprazole, reference compound]: at (H^+ +K^+) ATPase, the inhibition at 1000 µM is 38.7%. Besides, the ED50 in assay [1] worked out at 13.6 mg/kg; with gastric acid secretion, 35 mg/kg; in assay [2] it was 39.7 mg/kg; with Aspirin ulcer, 17.2 mg/kg.
